Measured values as given in the NIST ThermoML archive (doi:10.1016/j.jct.2005.04.018).

Conditions: Liquid; for speed of sound: Linear variable-path acoustic interferometer; for mass density: Vibrating tube method

CCCC[n+]1ccn(C)c1.O=S(=O)([N-]S(=O)(=O)C(F)(F)F)C(F)(F)F
Conditions | mass density [kg/m3] | speed of sound [m/s]
313.15 K, 10010 kPa | – | 1228.7
313.15 K, 12380 kPa | 1431.97 | –
313.15 K, 14840 kPa | 1433.7 | –
313.15 K, 17300 kPa | 1435.41 | –
313.15 K, 19760 kPa | 1437.1 | –
313.15 K, 19960 kPa | – | 1261.1
313.15 K, 22210 kPa | 1438.8 | –
313.15 K, 24670 kPa | 1440.5 | –
313.15 K, 27130 kPa | 1442.16 | –
313.15 K, 29590 kPa | 1443.8 | –
313.15 K, 32050 kPa | 1445.44 | –
313.15 K, 34510 kPa | 1447.05 | –
313.15 K, 36970 kPa | 1448.67 | –
313.15 K, 39430 kPa | 1450.26 | –
313.15 K, 41880 kPa | 1451.88 | –
313.15 K, 44340 kPa | 1453.41 | –
313.15 K, 46800 kPa | 1455.01 | –
313.15 K, 49260 kPa | 1456.51 | –
313.15 K, 51720 kPa | 1458.07 | –
313.15 K, 54180 kPa | 1459.64 | –
313.15 K, 56640 kPa | 1461.15 | –
313.15 K, 59100 kPa | 1462.71 | –
313.15 K, 59730 kPa | – | 1373.5
313.15 K, 98970 kPa | – | 1466.4
313.15 K, 150890 kPa | – | 1573.2
318.14 K, 100 kPa | 1418.06 | –
318.14 K, 5000 kPa | 1421.63 | –
318.14 K, 7460 kPa | 1423.41 | –
318.14 K, 9920 kPa | 1425.23 | –
318.14 K, 12380 kPa | 1427 | –
318.14 K, 14840 kPa | 1428.76 | –
318.14 K, 17300 kPa | 1430.5 | –
318.14 K, 19760 kPa | 1432.21 | –
318.14 K, 22210 kPa | 1433.93 | –
318.14 K, 24670 kPa | 1435.62 | –
318.14 K, 27130 kPa | 1437.31 | –
318.14 K, 29590 kPa | 1439.01 | –
318.14 K, 32050 kPa | 1440.66 | –
318.14 K, 34510 kPa | 1442.31 | –
318.14 K, 36970 kPa | 1443.93 | –
318.14 K, 39430 kPa | 1445.59 | –
318.14 K, 41880 kPa | 1447.2 | –
318.14 K, 44340 kPa | 1448.84 | –
318.14 K, 46800 kPa | 1450.43 | –
318.14 K, 49260 kPa | 1452.03 | –
318.14 K, 51720 kPa | 1453.64 | –
318.14 K, 54180 kPa | 1455.23 | –
318.14 K, 56640 kPa | 1456.83 | –
318.14 K, 59100 kPa | 1458.39 | –
323.14 K, 100 kPa | 1413.69 | –
323.14 K, 5000 kPa | 1417.31 | –
323.14 K, 7460 kPa | 1419.14 | –
323.14 K, 9920 kPa | 1420.97 | –
323.14 K, 12380 kPa | 1422.8 | –
323.14 K, 14840 kPa | 1424.57 | –
323.14 K, 17300 kPa | 1426.35 | –
323.14 K, 19760 kPa | 1428.11 | –
323.14 K, 22210 kPa | 1429.82 | –
323.14 K, 24670 kPa | 1431.56 | –
323.14 K, 27130 kPa | 1433.26 | –
323.14 K, 29590 kPa | 1434.96 | –
323.14 K, 32050 kPa | 1436.63 | –
323.14 K, 34510 kPa | 1438.32 | –
323.14 K, 36970 kPa | 1439.98 | –
323.14 K, 39430 kPa | 1441.63 | –
323.14 K, 41880 kPa | 1443.28 | –
323.14 K, 44340 kPa | 1444.91 | –
323.14 K, 46800 kPa | 1446.54 | –
323.14 K, 49260 kPa | 1448.18 | –
323.14 K, 51720 kPa | 1449.79 | –
323.14 K, 54180 kPa | 1451.4 | –
323.14 K, 56640 kPa | 1453.01 | –
323.14 K, 59100 kPa | 1454.62 | –
323.15 K, 100 kPa | – | 1172.6
323.15 K, 5050 kPa | – | 1190.2
323.15 K, 10030 kPa | – | 1207.8
323.15 K, 19940 kPa | – | 1241
323.15 K, 59810 kPa | – | 1355.9
323.15 K, 99220 kPa | – | 1450.8
323.15 K, 150840 kPa | – | 1557.4
328.2 K, 100 kPa | 1408.32 | –
328.2 K, 5000 kPa | 1412.04 | –
328.2 K, 7460 kPa | 1413.97 | –
328.2 K, 9920 kPa | 1415.75 | –
328.2 K, 12380 kPa | 1417.61 | –
328.2 K, 14840 kPa | 1419.44 | –
328.2 K, 17300 kPa | 1421.25 | –
328.2 K, 19760 kPa | 1423.05 | –
328.2 K, 22210 kPa | 1424.84 | –
328.2 K, 24670 kPa | 1426.58 | –
328.2 K, 27130 kPa | 1428.34 | –
328.2 K, 29590 kPa | 1430.04 | –
328.2 K, 32050 kPa | 1431.76 | –
328.2 K, 34510 kPa | 1433.46 | –
328.2 K, 36970 kPa | 1435.15 | –
328.2 K, 39430 kPa | 1436.83 | –
328.2 K, 41880 kPa | 1438.52 | –
328.2 K, 44340 kPa | 1440.15 | –
328.2 K, 46800 kPa | 1441.79 | –
328.2 K, 49260 kPa | 1443.46 | –
328.2 K, 51720 kPa | 1445.11 | –
328.2 K, 54180 kPa | 1446.72 | –
328.2 K, 56640 kPa | 1448.35 | –
328.2 K, 59100 kPa | 1449.96 | –
